According to patent EP0656422A1, “Cat assay” (priority 1993, dated 1995):

Target: Chloramphenicol Acetyl Transferase (CAT) (Escherichia coli, UniProt P62577)
Test: Acetylation by CAT with ¹⁴C acetyl coenzyme A, TLC and autoradiography
Type: biochemical
Conditions: analogue 2 mM stock 80 µl, CAT enzyme 3.75 units, ¹⁴C acetyl coenzyme A 0.1 µCi, 37°C for 90 minutes; no band in no enzyme control
Experimental: Biotinylated chloramphenicol analogue (compound 2) was dissolved to a concentration of 2 mmolar in 50% methanol. ¹⁴C acetyl coenzyme A (50 µCi/ml, […]) was obtained commercially.
In a microcentrifuge tube were mixed Tris/HCl (1M, pH 7.8) 7.5 µl, biotinylated chloramphenicol analogue (2 mM) 80 µl, CAT enzyme 3.75 units and ¹⁴C acetyl coenzyme A 2 µl (0.1 µCi). The mix was incubated at 37°C for 90 minutes. A control reaction which contained no enzyme was performed in parallel. 20 µl of each reaction was spotted on to a cellulose TLC plate which was developed in 95/5 chloroform methanol. The TLC plate was exposed to autoradiographic film.
The lane corresponding to the reaction to which enzyme was added contains a spot which migrated under the influence of the solvent. This band is acetylated, biotinylated chloramphenicol analogue. No corresponding band is visible in the no enzyme control.

Chain of Chloramphenicol Acetyl Transferase (CAT) (P62577 whole entry, looked up): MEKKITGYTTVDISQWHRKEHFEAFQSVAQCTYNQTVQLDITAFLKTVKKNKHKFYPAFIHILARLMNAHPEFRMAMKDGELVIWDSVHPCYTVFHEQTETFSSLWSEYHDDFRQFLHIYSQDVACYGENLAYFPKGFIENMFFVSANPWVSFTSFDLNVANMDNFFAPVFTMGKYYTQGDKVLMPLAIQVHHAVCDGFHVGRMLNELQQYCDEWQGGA

CC(=O)N[C@H](CO)[C@H](O)c1ccc(NC(=O)CCCCCNC(=O)CCCC[C@@H]2SC[C@@H]3NC(=O)N[C@@H]32)cc1 [Compound 2, 6-biotinylamino-N[4-(N-acetyl-1-(2-amino-1,3-propandiol))phenyl]hexamide]
substrate of CAT (acetylated product band on TLC): is a substrate of CAT
